Measured values: article PMC10060354, “Discovery of a small molecule ligand of FRS2 that inhibits invasion and tumor growth” (Cellular Oncology, 2022)

Key:
HCT116 = assay: SIA, collagen I invasion; type: cell-based; details: Homo sapiens, HCT-116, 100 ng/ml bFGF
Protocol: (§1) 1000—2500 cells/well in 100 μl were seeded in 96 well Corning® Spheroid microplate (CLS4520, Sigma-Aldrich) or in cell-repellent 96 well microplate (650,790, Greiner Bio-one). SIA and analysis was performed as described before. In brief: After spheroid formation (24 – 72 h after seeding), 70 µl medium was removed and replaced with the collagen mixture (2.5 mg/ml Pure Col Collagen I (Advanced Biomatrix)), DMEM 1x (from 10 × stock, Sigma, D2429) and 0.4% Sodium bicarbonate (Sigma, S8761)), resulting in a final collagen concentration of 1.75 mg/ml. Embedded spheroids were stimulated with bFGF (100 ng/ml if not otherwise stated), HGF (30 ng /ml) or EGF (20 ng/ml) and distance of invaded cells quantified 24 – 48 h after embedding. Compounds and BGJ398 were added in Dimethylsulfoxid (DMSO) and corresponding DMSO concentrations were used in control samples.

M059K = assay: SIA, collagen I invasion; type: cell-based; details: Homo sapiens, 100 ng/ml bFGF
Protocol: as §1

DAOY FRS2-FLAG cells = assay: SIA, bFGF-induced collagen I invasion in FRS2-FLAG overexpressing cells; type: cell-based; details: Homo sapiens
Protocol: as §1
Lentiviral construct pLV[Exp]-hPGK > hFRS2[NM_001278357.1](ns)*/3xFLAG:P2A:Puro was ordered from VectorBuilder (Santa Clara, CA, USA). A FLAG-tag ([…]) was fused to the C-terminus of FRS2. Lentiviral particles were produced by transfection of HEK-293 T cells with transfer plasmids, psPAX2 (#12,260, Addgene) and pCMV-VSV-G plasmid (#8454, Addgene) in a ratio of 5:3:2 using polyethlenimine (24,765–2. Polysciences). Virus supernatant was harvested 30 h post transfection and filtered. […]

DAOY siCTL cells = assay: SIA, bFGF-induced collagen I invasion in control siRNA cells; type: cell-based; details: Homo sapiens
Protocol: as §1
siFRS2 in DAOY cells: 50,000 cells/well in 2 ml medium were seeded in 6 well plates and incubated at 37 °C, 5% CO2. The following day cells were transfected with 10 nM siRNA (5 nM Silencer Select, 5 nM Stealth RNAi siRNA) using Lipofectamin RNAiMAX Transfection Reagent (13,778,075; Invitrogen) and Opti-MEM® medium (15,392,402; Gibco). After 6 h, the medium was exchanged with fresh complete medium and further processed for the SIA protocol.

[1] = mouse, in vivo
Protocol: […]. Animals received an initial dose of 30 mg/kg. If the animals had no significant adverse effects within 60 min after treatment, the dose for the next cohort was increased. If one or more animals died or had significant adverse effects within 60 min after treatment, the dose for the next cohort was decreased. The testing stopped when all animals survived at the upper bound (200 mg/kg), or lower bound (3 mg/kg) had been reached. Full clinical examinations and body weight change were assessed. At each dose level, animals were observed, and mortality was noted daily after compound administration for three days. […] Body weights were recorded pre-dose and at 72 h.
The next dose level was determined by the following scheme: • 30 mg/kg, if no death, 100 mg/kg, if no death, 200 mg/kg (upper bound) • 30 mg/kg, if no death, 100 mg/kg, if death, 50 mg/kg • 30 mg/kg, if death, 10 mg/kg, if death, 3 mg/kg (lower bound) • 30 mg/kg, if death, 10 mg/kg, if no death, 17 mg/kg

[2] = Multi-dose MTD with plasma exposure; type: in vivo
Protocol: […]. […] Body weights were recorded once daily for 8 days. […] In addition, plasma samples were collected at 0.5, 1, 2 and 5.3 h(s) after the second dose on Day 4 (150 mg/kg, PO; bid × 5 group) and at 0.5, 1, 2 and 6 h(s) after the final dose on Day 5 (200 mg/kg, PO; qd × 5 group). The exposure levels (ng/mL) of 7 in plasma samples were then determined by LC–MS/MS. AUClast was calculated from the area under the plasma concentration–time curve from time zero to time of last measurable concentration.

AGS flank tumors = assay: Anti-tumor activity, AGS flank xenograft model; type: in vivo
Protocol: In vivo mouse models were generated and experiment with SKOV3 and AGS models performed by EPO, experimental pharmacology & oncology Berlin-Buch GMBH (Berlin, Germany). AGS model: AGS cells were cultured in F12-K medium (10%FCS, 1%PS) until P11. […]. Tumor diameters were determined by calliper measurements 2 × weekly, body weight (BW) was measured as parameter for tolerability 2 × weekly.

pFRS2Y436 = assay: IHC of pFRS2Y436 in SKOV3 flank tumor samples; type: in vivo, mice; details: SKOV3 model; end of treatment
Protocol: IHC of tumor sections was performed by Sophistolab (Muttenz, Switzerland) on a Lecia BondMax instrument using Refine HRP-Kits (Leica DS9800). All buffer-solutions were purchased from Lecia Microsystems Newcastle, Ltd and used according to the manufacturer’s guidelines. Paraffin-slides were de-waxed, pre-treated and incubated as follows: ER-solution 2 for 10 min at 95 °C, ER-solution 2 for 20 min at 100 °C and ER-solution 2 for 30 min at 100 °C. pFRS2; Rabbit anti-Phospho FRS2 (PhosphoY 436, Abcam Limited; ab193363), dilution 1:150; phospho-p44/42 MAPK (Erk1/2Thr202/Tyr204) Rabbit mAb (Cell Signaling Technology #4370), dilution 1:1600. The IHC images were captured digitally using a Nikon Epifluorescence Eclipse Ti2 equipped with a Nikon DS-Ri2 color and a Nikon DS-Qi2 monochrome camera.

AKT(pS473) = assay: Immunoblotting, AKT phosphorylation; type: cell-based, human; details: SW780 cells
Protocol: Cells were serum starved o.n. and 10 µM compound or 1 µM (BGJ398) were added 3 h before stimulation with 100 ng/ml bFGF for 15 min. Cells were lysed in RIPA buffer containing protease inhibitor cocktail and lysates resolved by SDS-PAGE. Membranes were probed with primary antibodies against phospho-FRS2, FRS2, phospho-ERK1/2, ERK1/2, pAKT, AKT and tubulin. Integrated density of immuno-reactive bands was quantified using Adobe Photoshop CS3. Integrated densities of phospho bands relative to non-phospho bands of same protein were calculated and plotted as fold-change relative to untreated control conditions. Compounds and BGJ398 were added in DMSO and corresponding DMSO concentrations were used in control samples.

[3] = AGS model, 200 mg/kg PO once per day

Row | SMILES | EC50 (HCT116) [µM] | EC50 (M059K) [µM] | IC50 (DAOY FRS2-FLAG cells) [µM] | IC50 (DAOY siCTL cells) [µM] | single-dose tolerability (result in words) [1] | additional body weight loss, days 5-8 ([2]; 200 mg/kg daily for 5 days) [%] | body weight loss, days 1-5 ([2]; 200 mg/kg daily for 5 days) [%] | multi-dose clinical signs (result in words) ([2]; 200 mg/kg daily for 5 days) | plasma concentration reached, multi-dose ([2]; 200 mg/kg once daily for 5 days, day five, for at least six h after administration) [µM] | multi-dose mortality (result in words) ([2]; mouse, in vivo) | tolerability in AGS tumor-bearing mice (result in words) (AGS flank tumors; 200 mg/kg PO, treatment interrupted for 7 days at day 72) | animals with TV reduced at d67 and plateaued between d70 and 77 (AGS flank tumors; [3]) | average tumor volume (result in words) (AGS flank tumors; [3]) | pFRS2 Y436 in tumor tissues by IHC (result in words) (pFRS2Y436) | pAKT (result in words) (AKT(pS473))
1 | O=[N+]([O-])c1c(Cl)cc(O)c2c1C1C=CCC1C(c1ccc(Cl)cc1)N2 (stereo not drawn) [Compound 7] | 0.416 | 3.28 | 4.16 | 3.01 | No mortality and body weight loss was observed | 14.6 | 10 | induced vocalization, hunchback and decrease in touch response, abdominal and limb tone and low limb post | 20 | No mortality was noted | signs of toxicity | four out of the six | did not significantly reduce average TV compared to control | No clear difference in pFRS2 Y436 | 
2 | Cc1[nH]nc(-c2ccc(O)c(C)c2O)c1-c1nc2ccccc2s1 [Compound E12] |  |  |  |  |  |  |  |  |  |  |  |  |  |  | increase in pAKT
